target: bovine serum albumin (BSA) (Bos taurus, UniProt P02769); test: Protein binding studies (albumin binding, centrifugal ultrafiltration, HPLC); assay type: in vitro ADME; settings: didanosine and didanosine prodrugs; method of Example 7: 4% BSA in water, 30 minutes at 37° C., 10,000 MWCO centrifugal filter, phosphate buffer pH 7.4 reference
Description: The compound (approximately 5 mg) was dissolved in DMSO (approximately 1.8 ml). A small sample of this DMSO solution (approximately 5 mg) was added to a solution of bovine serum albumin (BSA) in water (approximately 1.8 ml, 4% BSA). Another sample of the DMSO solution (approximately 5 mg) was added to a solution of phosphate buffer pH 7.4 (isotonic) (approximately 1.8 ml).
Both samples were shaken in a water bath for 30 minutes at 37° C.
The devices were centrifugated at 4000 rpm for 1 hour at 37° C.
The amount of drug in the filtrates was determined by HPLC(C-18 column, phosphate buffer pH 2.2/acetonitrile, UV detection).

Chain of bovine serum albumin (BSA) (P02769 25-607): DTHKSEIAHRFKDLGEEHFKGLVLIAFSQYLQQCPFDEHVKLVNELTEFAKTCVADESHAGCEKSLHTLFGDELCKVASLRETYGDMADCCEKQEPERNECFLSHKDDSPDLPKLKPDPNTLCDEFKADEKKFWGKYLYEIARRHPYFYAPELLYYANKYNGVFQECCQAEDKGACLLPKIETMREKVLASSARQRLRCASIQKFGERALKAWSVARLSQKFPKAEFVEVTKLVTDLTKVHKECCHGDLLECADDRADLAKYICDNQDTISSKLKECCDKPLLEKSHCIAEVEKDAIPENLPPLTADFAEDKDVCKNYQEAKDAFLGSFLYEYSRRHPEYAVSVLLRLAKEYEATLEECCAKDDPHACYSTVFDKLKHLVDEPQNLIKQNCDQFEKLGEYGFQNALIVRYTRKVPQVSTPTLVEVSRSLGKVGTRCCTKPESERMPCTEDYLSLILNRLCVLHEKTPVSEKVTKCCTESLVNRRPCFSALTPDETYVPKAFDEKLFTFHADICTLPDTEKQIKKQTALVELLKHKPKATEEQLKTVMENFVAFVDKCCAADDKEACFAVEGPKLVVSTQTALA

Row | % Albumin binding [%] | SMILES
1 | 94 | O=C(O)CCCCCCCCCCC(=O)OCC1CCC(n2cnc3c(=O)[nH]cnc32)O1 (stereo not shown) [2′,3′-dideoxy-5′-hydrogen dodecanedioate inosine]
2 | 100 | O=C(O)CCCCCCCCCCCCCCC(=O)OCC1CCC(n2cnc3c(=O)[nH]cnc32)O1 (stereo not shown) [2′,3′-dideoxy-5′-hydrogen hexadecanedioate inosine]
3 | 10 | O=C(O)CCCCC(=O)OCC1CCC(n2cnc3c(=O)[nH]cnc32)O1 (stereo not shown) [2′,3′-dideoxy-5′-hydrogen hexanedioate inosine]
4 | 40 | O=C(O)CCCCCCC(=O)OCC1CCC(n2cnc3c(=O)[nH]cnc32)O1 (stereo not shown) [2′,3′-dideoxy-5′-hydrogen octanedioate inosine]
